Entries after “also recorded” stand apart in the source; their conditions may differ.
Tested on: human cervical cancer (ME-180) xenograft
Assay: Xenograft mouse tumor model of human cervical cancer (ME-180) in female SCID mice
Format: in vivo
Protocol: The four groups in the experiment were: (1) control article (5% EtOH/medium); (2) 15 Gy X-ray irradiation; (3) Compound B at 7 mg/kg in 5% EtOH/medium and (4) Compound B at 7 mg/kg in 5% EtOH/medium plus 15 Gy X-ray irradiation, as shown in Table 2.
ME-180 (human cervical cancer) cells were cultured in the ATCC-formulated McCoy's 5 A Medium supplemented with 10% FBS. The cells in a flask were maintained at 37° C. in a humidified atmosphere containing 5% CO2. The cells were rinsed with PBS, trypsined for detachment from the bottom of the flask, mixed with fresh growth medium, and centrifuged to remove the supernatant. The cells were re-suspend with fresh medium to appropriate concentration for inoculation. Injection volume was 50 μl (1×10^6 cells) per animal.
ME-180 tumour cells were implanted subcutaneously into female SCID mice (age 6-8 weeks) in a volume of 50 μL into the left gastrocneumius muscle using a 27-gauge needle. This was established as a subcutaneous (SC) xenograft mouse model of human cervical cancer.
Mice were individually weighed and injected intraperitoneally according to body weight for an injection concentration as outlined in the study group table above. The injection volume was based on 200 μL per 20 g mouse. The skin surface was wiped down with 70% isopropyl alcohol to clean the injection site. Radiation was given using X-rad 225 targeted irradiator to the tumors.
Tumor size was measured as a function of time to assess tumor growth delay associated with treatment using slide caliper and […]. Animals were also weighed at the time of tumour measurement. Tumours in mice were allowed to grow to a maximum of 1000 mm^3 before termination.

Nc1cc(Br)c(Br)cc1N [Compound B, 4,5-dibromo-1,2-phenylenediamine]
suppression of tumor growth (7 mg/kg IP 1 hr prior to 15 Gy 225 keV x-ray, versus radiation or compound only): significantly enhanced the suppression of tumor growth | tumor growth delay (7 mg/kg plus 15 Gy x-ray, single doses): very significant tumor growth delay in vivo till 21 days | shrinkage of the tumor (7 mg/kg plus 15 Gy x-ray, tumor volumes and MRI, Day 21): significant shrinkage of the tumor in mice; also recorded: most significant shrinkage of the tumor in mice

— US9655965B2, “Radiosensitizer compounds for use in combination with radiation” (priority 2013, dated 2017)
